Test results from ChEMBL document CHEMBL1201862, “PubChem BioAssay data set” (2004).
Values belong to the compound of their own block, whether it stands above or below them. Calls of active or inactive are those of the source.

Columns and labels:
[1] = HeLa cell cytotoxicity, dose response, cytotoxicity control, CellTiter-Glo luminescence, dry powder, set 2 (AID 720593); assay type: functional, cell-based
[2] = HEK293T cell cytotoxicity, dose response, cytotoxicity control, CellTiter-Glo luminescence, dry powder, set 2 (AID 720595); assay type: functional, cell-based; conditions: HEK293
[3] = HepG2 hepatoma cell cytotoxicity, dose response, cytotoxicity control, CellTiter-Glo luminescence, dry powder, set 3 (AID 720594); assay type: functional, cell-based
[4] = cytotoxicity dependent on PAX8, dose response, cell-based, plate reader, dry powder (AID 743049); assay type: functional
[5] = cytotoxicity in HEK-293T cells, dose response, cytotoxicity control for BCR NF-kB inhibitor project, luminescence, B-cell screen hits (AID 489021); assay type: functional, cell-based;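 note: HEK-293T cells carrying an NF-kB luciferase reporter; cells exposed to compound for about 14 hours before viability readout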
[6] = PAX5 activity inhibitors, dose response, selectivity assay for PAX8 inhibitor project, cell-based, plate reader, dry powder samples (AID 743047); assay type: functional;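 note: HEK293 cells carrying a Pax5 driven CD19 promoter luciferase reporter; potency of inhibitors that lower reporter luminescence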
[7] = cytotoxicity in OVCAR4 cells, dose response, cytotoxicity control for PAX8 inhibitor project, cell-based, plate reader, dry powder, SA11 (AID 743150); assay type: functional; conditions: OVCAR-4
[8] = PAX2 cell-based inhibition, dose response, selectivity assay for PAX8 inhibitor project, plate reader, dry powder samples (AID 743048); assay type: functional;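 note: HEK293 cells carrying a WT1 promoter luciferase reporter driven by expressed Pax2; potency is for inhibition of Pax2 driven reporter signal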
Paired box protein Pax-8 = Paired box protein Pax-8 (Homo sapiens, UniProt Q06710); assay: inhibitors of PAX8-driven TPO luciferase reporter, dose response, RMG-I cells, cherry-pick (AID 687027); assay type: functional, cell-based;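 note: luciferase reporter driven by Pax8 target thyroperoxidase promoter measured by SteadyGlo luminescence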
Sequence of Paired box protein Pax-8 (Q06710 whole entry): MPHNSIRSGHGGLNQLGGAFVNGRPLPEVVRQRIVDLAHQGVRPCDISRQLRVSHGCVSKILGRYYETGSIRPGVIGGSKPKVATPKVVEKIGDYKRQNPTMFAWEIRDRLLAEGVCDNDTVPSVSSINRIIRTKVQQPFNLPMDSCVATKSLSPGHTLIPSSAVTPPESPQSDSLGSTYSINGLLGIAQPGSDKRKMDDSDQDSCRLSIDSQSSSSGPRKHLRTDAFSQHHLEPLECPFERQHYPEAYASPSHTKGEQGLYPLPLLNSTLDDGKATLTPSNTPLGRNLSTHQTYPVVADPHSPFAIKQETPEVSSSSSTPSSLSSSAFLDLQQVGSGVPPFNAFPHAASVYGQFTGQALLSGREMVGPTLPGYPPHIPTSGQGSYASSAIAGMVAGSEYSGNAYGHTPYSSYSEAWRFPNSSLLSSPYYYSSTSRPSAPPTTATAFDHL

[9] = IGROV1 ovarian cancer cell cytotoxicity, dose response, PAX8 inhibitor project, plate reader, dry powder samples (AID 743043); assay type: functional, cell-based; conditions: IGROV-1
[10] = cytotoxicity in COV434 cells, dose response, cytotoxicity control for PAX8 inhibitor project, cell-based, plate reader, dry powder, SA7 (AID 743145); assay type: functional
[11] = target: NAD-dependent protein deacylase sirtuin-5, mitochondrial (Homo sapiens, UniProt Q9NXA8); assay: SIRT5 desuccinylase inhibitors, dose response, biochemical, fluorescence imaging, cherry-pick, set 5 (AID 720591);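 note: desuccinylation of succinyl peptide AMC substrate read as fluorescence after trypsin release; potency of inhibitors that lower fluorescence and may act on trypsin instead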
Sequence of NAD-dependent protein deacylase sirtuin-5, mitochondrial (Q9NXA8 whole entry): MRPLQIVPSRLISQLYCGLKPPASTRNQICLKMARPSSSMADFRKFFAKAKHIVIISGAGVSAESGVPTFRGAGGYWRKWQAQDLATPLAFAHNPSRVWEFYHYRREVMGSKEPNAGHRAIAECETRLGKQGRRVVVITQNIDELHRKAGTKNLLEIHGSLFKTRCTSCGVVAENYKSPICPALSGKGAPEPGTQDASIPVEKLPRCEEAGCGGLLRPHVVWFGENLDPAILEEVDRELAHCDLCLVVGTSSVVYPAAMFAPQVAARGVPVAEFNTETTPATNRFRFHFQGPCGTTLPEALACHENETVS

[12] = Counterscreen for inhibitors of Trypanosoma brucei methionyl tRNA synthetase (MetRS): Luminescence-based cell-based high throughput dose response assay to identify compounds that are cytotoxic to Jurkat human T lymphocyte cells.; assay type: functional
[13] = Late stage counterscreen for inhibitors of Trypanosoma brucei methionyl tRNA synthetase (MetRS): Luminescence-based cell-based high throughput dose response assay to identify compounds that are cytotoxic to Jurkat human T lymphocyte cells.; assay type: functional
[14] = target: T1, Methionyl-tRNA synthetase, putative (Trypanosoma brucei brucei, UniProt Q38C91); assay type: functional, Trypanosoma brucei brucei strain 927/4 GUTat10.1
T1 sequence (Q38C91 whole entry): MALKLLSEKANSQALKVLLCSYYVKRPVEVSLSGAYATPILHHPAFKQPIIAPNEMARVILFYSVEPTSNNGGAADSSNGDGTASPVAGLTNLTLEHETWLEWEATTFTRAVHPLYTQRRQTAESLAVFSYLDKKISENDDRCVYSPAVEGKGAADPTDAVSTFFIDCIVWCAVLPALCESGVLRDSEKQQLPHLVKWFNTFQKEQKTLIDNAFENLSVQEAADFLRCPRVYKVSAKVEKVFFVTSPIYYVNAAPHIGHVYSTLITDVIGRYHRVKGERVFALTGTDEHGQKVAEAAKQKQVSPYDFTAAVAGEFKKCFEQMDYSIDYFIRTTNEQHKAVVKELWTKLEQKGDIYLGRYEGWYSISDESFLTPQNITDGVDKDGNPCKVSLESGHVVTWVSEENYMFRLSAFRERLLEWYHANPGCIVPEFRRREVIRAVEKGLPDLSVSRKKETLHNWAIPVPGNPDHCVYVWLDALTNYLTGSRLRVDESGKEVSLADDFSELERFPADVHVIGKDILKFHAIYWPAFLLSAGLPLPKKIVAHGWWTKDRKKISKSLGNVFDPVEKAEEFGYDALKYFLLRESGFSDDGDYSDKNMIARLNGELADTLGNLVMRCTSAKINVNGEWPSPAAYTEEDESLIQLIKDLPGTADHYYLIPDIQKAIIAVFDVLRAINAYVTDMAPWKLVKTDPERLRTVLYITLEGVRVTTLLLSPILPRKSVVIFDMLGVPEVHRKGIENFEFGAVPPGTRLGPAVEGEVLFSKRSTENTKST

[15] = target: T1, Methionyl-tRNA synthetase, putative; assay type: functional, Trypanosoma brucei brucei strain 927/4 GUTat10.1; remark: listed apart in the source
[16] = NIH:OVCAR-3 ovarian cancer cell cytotoxicity, dose response, PAX8 inhibitor project, plate reader, dry powder samples (AID 743044); assay type: functional, cell-based
[17] = cytotoxicity in COV362 ovarian cancer cells, dose response, cytotoxicity control for PAX8 inhibitor project, cell-based, plate reader, dry powder, SA12 (AID 743144); assay type: functional
[18] = A2780 ovarian cancer cell cytotoxicity, dose response, cytotoxicity control, plate reader, dry powder samples (AID 743046); assay type: functional, cell-based
[19] = cytotoxicity in OV-90 ovarian cancer cells, dose response, PAX8 inhibitor project, cell-based, plate reader, dry powder, SA8 (AID 743149); assay type: functional
[20] = A549 cell cytotoxicity, dose response, cytotoxicity control, 24 h, CellTiter-Glo luminescence, cherry-picks (AID 1053115); assay type: functional, cell-based; conditions: A549, 24 h

Structure (SMILES): CC(C)C(=O)NC(c1ccco1)c1cc(Cl)c2cccnc2c1O (configuration not stated)
- AC50 [1]: 28.3 µM (active)
- AC50 [2]: 8.31 µM (active)
- AC50 [3]: > 52 µM (inactive)

Structure (SMILES): CCN(CC(=O)Nc1c(F)cccc1F)C(=O)c1cc(S(=O)(=O)N(C)C)ccc1N1CCCC1
- AC50 [4]: 39.3 µM (active)
- IC50 [5]: > 80 µM (inactive)
- AC50 [6]: 73.1 µM (active)
- AC50 [7]: 58.9 µM (active)
- AC50 [8]: 88.8 µM (active)
- AC50 (Paired box protein Pax-8): 7.72 µM (active)
- AC50 [9]: 14.2 µM (active)
- AC50 [10]: 29.4 µM (active)

- AC50 [11]: > 30 µM (inactive)
Structure (SMILES): COc1ccc(C)cc1NC(=O)CCN1CC(C)OC(C)C1 (configuration not stated)

Structure (SMILES): O=C(NCc1nc2ccccc2[nH]1)C1=C[C@H](C2CC2)C[C@H](OCc2ccc(CO)cc2)O1
- IC50 [12]: 83.3 µM (inactive)
- IC50 [13]: > 83.3 µM (inactive)
- IC50 [14]: 8.95 µM (active)
- IC50 [15]: 3.68 µM (active)

Structure (SMILES): COc1cc(/C=C2\SC(=S)N(CCC(=O)N3CCCCC3)C2=O)cc(OC)c1OC
- AC50 [4]: 15 µM (active)
- AC50 [16]: 15.5 µM (active)
- AC50 [7]: 43 µM (active)
- AC50 [17]: 31.2 µM (active)
- AC50 [8]: 69.6 µM (active)
- AC50 (Paired box protein Pax-8): 8.62 µM (active)
- AC50 [9]: 13.1 µM (active)
- AC50 [18]: 26.3 µM (active)
- AC50 [10]: 26.8 µM (active)
- AC50 [19]: 35.9 µM (active)

Structure (SMILES): OC[C@@H]1Nc2ccc(-c3ccccc3)cc2[C@H]2[C@@H]1CCN2Cc1ccc(F)cc1
- AC50 [20]: 47.6 µM (active)
